From BindingDB's records for doi:10.1124/mol.112.080291 (University of California San Diego, 2014) come the findings set out here.

“And” between values parts separate entries of the source, which are not always exact repeats. Identical values can stand only once.

Assay in all cases: Synthesizing Selective Agonists for the ?7 Nicotinic Receptor with in situ Click-Chemistry on Acetylcholine Binding Protein Templates.
The target in assay [1] is T1, 5-hydroxytryptamine receptor 3A (Mus musculus, UniProt P23979).
T1 sequence (P23979 whole entry): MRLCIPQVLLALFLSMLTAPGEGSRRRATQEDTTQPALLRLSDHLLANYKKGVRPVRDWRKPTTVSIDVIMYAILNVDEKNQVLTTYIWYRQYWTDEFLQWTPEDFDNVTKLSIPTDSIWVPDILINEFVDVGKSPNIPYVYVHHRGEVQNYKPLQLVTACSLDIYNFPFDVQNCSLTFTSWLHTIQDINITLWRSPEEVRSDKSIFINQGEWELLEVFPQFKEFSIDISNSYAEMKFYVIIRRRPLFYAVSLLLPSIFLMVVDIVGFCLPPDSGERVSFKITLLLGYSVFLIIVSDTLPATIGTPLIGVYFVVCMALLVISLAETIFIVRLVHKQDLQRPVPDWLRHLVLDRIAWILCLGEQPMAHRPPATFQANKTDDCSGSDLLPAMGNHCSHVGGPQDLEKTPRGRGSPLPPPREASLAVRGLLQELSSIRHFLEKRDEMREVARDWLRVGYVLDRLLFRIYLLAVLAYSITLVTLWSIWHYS
As to conditions: pH 7.4; 37 °C. The method, then:
(§1) Assay Description 2 Assays used to generate Ki or EC50 values. 1) SPA Assay - Quick screen binding assays were performed using 100 l of 0.2 mg/ml anti-mouse SPA antibody-binding beads (Amersham Biosciences) mixed with 33.6 g of monoclonal anti-FLAG M2 antibody from mouse (Sigma) in 0.1 M NaPO4 buffer, pH 7.0 (SPA mixture). Media (5l) collected 2 days after transfection were added to the mixture and finally 10 l of (+)-[3H]epibatidine (PerkinElmer Life Sciences) was added at a final concentration of 10 nM. Solutions were each counted for 1 min on either a Beckman LS 6500 liquid scintillation counter or Wallac 1450 Microbeta Trilux. Negative and positive controls consisted of media (5 l) from the respective transfections. Nonexpressing mutants were transfected and verified de novo in triplicate. Western immunoblots were also performed upon media (15 l) from transfections to verify the lack of expression. Competition curves and direct binding were measured following the protocol p

The target in assay [2] is Acetylcholine-binding protein (Lymnaea stagnalis, UniProt P58154). As to conditions: pH 7.4; 20 °C. The method, then: as §1
Acetylcholine-binding protein, sequence (P58154 whole entry): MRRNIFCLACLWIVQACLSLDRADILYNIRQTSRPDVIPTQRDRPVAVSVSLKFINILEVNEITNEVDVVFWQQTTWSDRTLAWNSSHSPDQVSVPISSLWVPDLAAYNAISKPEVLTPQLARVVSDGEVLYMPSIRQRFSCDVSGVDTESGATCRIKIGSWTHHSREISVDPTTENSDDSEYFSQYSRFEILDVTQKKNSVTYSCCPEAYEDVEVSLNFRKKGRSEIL
Assay [3] concerns the target Neuronal acetylcholine receptor subunit alpha-4 (Homo sapiens, UniProt P43681). To be noted: pH 7.4; 37 °C. The method, then: as §1
The target of assay [4] is Neuronal acetylcholine receptor subunit alpha-7 (Homo sapiens, UniProt P36544). As to conditions: pH 7.4; 37 °C. The method, then:
as §1

Assay [5] deals with T2, Soluble acetylcholine receptor (Aplysia californica, UniProt Q8WSF8).
T2 sequence (Q8WSF8 whole entry): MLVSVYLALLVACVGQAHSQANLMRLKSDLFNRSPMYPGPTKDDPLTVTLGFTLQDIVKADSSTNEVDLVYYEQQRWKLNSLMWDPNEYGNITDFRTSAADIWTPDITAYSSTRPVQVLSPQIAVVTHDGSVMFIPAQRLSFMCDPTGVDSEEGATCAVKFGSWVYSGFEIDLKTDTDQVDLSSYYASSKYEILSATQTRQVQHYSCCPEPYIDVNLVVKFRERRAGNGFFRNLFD
To be noted: pH 7.4; 20 °C. The method, then: as §1

Neuronal acetylcholine receptor subunit alpha-7, sequence (P36544 whole entry): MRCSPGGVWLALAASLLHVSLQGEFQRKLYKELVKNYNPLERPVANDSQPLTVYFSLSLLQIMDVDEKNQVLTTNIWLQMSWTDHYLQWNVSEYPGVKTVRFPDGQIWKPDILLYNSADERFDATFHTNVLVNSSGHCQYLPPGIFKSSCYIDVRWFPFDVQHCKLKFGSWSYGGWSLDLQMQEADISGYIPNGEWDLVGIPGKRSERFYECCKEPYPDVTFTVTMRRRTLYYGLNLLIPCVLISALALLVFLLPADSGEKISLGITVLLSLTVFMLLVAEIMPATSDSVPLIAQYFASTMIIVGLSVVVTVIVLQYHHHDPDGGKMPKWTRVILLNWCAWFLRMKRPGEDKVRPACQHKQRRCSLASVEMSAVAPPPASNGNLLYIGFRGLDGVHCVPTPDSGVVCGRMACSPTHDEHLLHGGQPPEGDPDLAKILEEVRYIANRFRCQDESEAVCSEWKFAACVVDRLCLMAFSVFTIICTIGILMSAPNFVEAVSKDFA
Neuronal acetylcholine receptor subunit alpha-4, sequence (P43681 whole entry): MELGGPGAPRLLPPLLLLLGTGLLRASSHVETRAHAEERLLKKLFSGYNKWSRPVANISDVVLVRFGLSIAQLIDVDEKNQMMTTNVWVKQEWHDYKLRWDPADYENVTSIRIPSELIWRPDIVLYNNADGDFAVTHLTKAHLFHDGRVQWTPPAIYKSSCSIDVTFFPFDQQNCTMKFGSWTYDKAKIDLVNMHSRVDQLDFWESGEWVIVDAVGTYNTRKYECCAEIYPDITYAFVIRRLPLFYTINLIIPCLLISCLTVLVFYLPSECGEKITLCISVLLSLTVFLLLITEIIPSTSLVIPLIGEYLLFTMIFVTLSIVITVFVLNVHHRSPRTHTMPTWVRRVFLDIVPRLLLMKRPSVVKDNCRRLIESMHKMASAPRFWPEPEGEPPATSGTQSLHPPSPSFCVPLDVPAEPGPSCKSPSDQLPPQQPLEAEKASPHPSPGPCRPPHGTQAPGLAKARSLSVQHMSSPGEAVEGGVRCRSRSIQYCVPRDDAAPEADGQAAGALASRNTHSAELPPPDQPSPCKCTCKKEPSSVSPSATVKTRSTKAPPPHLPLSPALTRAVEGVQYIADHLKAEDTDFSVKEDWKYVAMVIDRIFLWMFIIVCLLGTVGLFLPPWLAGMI

As for `C[N+]1(C)[C@@H]2CC[C@H]1C[C@H](n1cc(COc3ccccc3-c3ccno3)nn1)C2` [14q], the Ki – broadly, a measure of affinity in units of concentration, obtained from inhibition or displacement – in assay [1] is > 30000 nM; in assay [2], 50 nM; in assay [3] it was > 30000 nM; in assay [5], 140 nM and 170 nM and 96 nM. Further, the EC50 – broadly, the concentration giving half of the maximal effect – in assay [4] was found to be 2000 nM.
For `Cn1c(=O)cc(OCc2cnnn2CCC[N+]2(C)CCCC2)c2ccccc21` [5'], the inhibition constant (Ki) is > 30000 nM in assay [1]; 600 nM in assay [2]; 40000 nM in assay [3]; 1400 nM and 800 nM in assay [5]. Further, in assay [4], the concentration giving a half-maximal response (EC50) worked out at 2000 nM.
Take `CN1[C@@H]2CC[C@H]1C[C@H](n1cc(CSc3nc4ccccc4s3)nn1)C2` [15t]: the Ki in assay [1] is 32000 nM; in assay [2], 40 nM; in assay [3], 32000 nM; in assay [5], 240 nM and 140 nM and 110 nM. In addition, the EC50 in assay [4] came to 12000 nM.
As to `C[N+]1(C)[C@@H]2CC[C@H]1C[C@H](n1cc(CNC(=O)N3c4ccccc4CCc4ccccc43)nn1)C2` [23q], the inhibitory constant (Ki) was > 30000 nM in assay [1]; 500 nM in assay [2]; 30000 nM in assay [3]; 420 nM and 1000 nM and 2000 nM in assay [5]. The compound further yielded a concentration for a half-maximal effect (EC50) in assay [4] of 8000 nM.
`C[N+]1(C)[C@@H]2CC[C@H]1C[C@H](n1cc(C3(O)c4ccccc4-c4ccccc43)nn1)C2` [20q]: the inhibitory constant (Ki) in assay [1] was > 30000 nM; in assay [2], 50 nM; in assay [3], 15000 nM; in assay [5], 400 nM and 600 nM and 120 nM. For the same compound, the midpoint of the response in assay [4], the EC50, lay at 4000 nM.
Regarding `Cn1nncc1COc1cc(=O)n(C)c2ccccc12` [alpha7 agonists 1'], the Ki in assay [1] is > 30000 nM; in assay [2], 60 nM; in assay [3], 30000 nM; in assay [5], 1400 nM and 170 nM. In assay [4], it took 6000 nM to reach a half-maximal effect (EC50).
Consider `C[N+]1(C)[C@@H]2CC[C@H]1C[C@H](n1cc(-c3cc(C(F)(F)F)cc(C(F)(F)F)c3)nn1)C2` [17q], for which the Ki is 8000 nM in assay [1]; 130 nM in assay [2]; 5000 nM in assay [3]; 110 nM and 300 nM and 400 nM in assay [5]. Moreover, the 50% effective concentration (EC50) in assay [4] was 900 nM.
With `CN1[C@@H]2CC[C@H]1C[C@H](n1cc(C(O)(c3ccccc3)C(F)(F)F)nn1)C2` (stereo not given in full) [19t], the inhibition constant (Ki) in assay [1] was > 30000 nM; in assay [2] it was > 5000 nM; in assay [3] it was > 30000 nM; in assay [5] it was > 5000 nM. Also, in assay [4], the EC50 is > 30000 nM.
For the compound `CN1[C@@H]2CC[C@H]1C[C@H](n1cc(CNC(=O)c3ccco3)nn1)C2` [12t], the Ki is > 30000 nM in assay [1]; 210 nM in assay [2]; 20000 nM in assay [3]; > 5000 nM and 1400 nM in assay [5]. The EC50 in assay [4] is > 30000 nM.
As for `CN1[C@@H]2CC[C@H]1C[C@H](n1cc(CNC(=O)N3c4ccccc4CCc4ccccc43)nn1)C2` [23t], the Ki was > 30000 nM in assay [1]; > 5000 nM in assay [2]; > 30000 nM in assay [3]; 1300 nM and 1020 nM and > 5000 nM in assay [5]. Further, the EC50 in assay [4] is > 30000 nM.
As to `CN1[C@@H]2CC[C@H]1C[C@H](n1cc(-c3cc(C(F)(F)F)cc(C(F)(F)F)c3)nn1)C2` [17t], the Ki in assay [1] was > 30000 nM; in assay [2] it was 600 nM; in assay [3], > 30000 nM; in assay [5] it was 1100 nM and > 5000 nM. The EC50 in assay [4] was > 30000 nM.
